Data as given in PubChem BioAssay (NCI).
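96-well plates; 48 h exposure; 5 concentrations. Endpoints by linear interpolation between flanking doses. Not reached: highest tested concentration assigned. TGI denotes the concentration required for complete inhibition of growth.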

Legend:
Assay in all cases: NCI tumour cell line growth inhibition, 48 h
LXFL 529 NSCLC = test system: LXFL 529 NSCLC
OVCAR-3 ovarian = test system: OVCAR-3 ovarian
OVCAR-8 ovarian = test system: OVCAR-8 ovarian
U251 CNS = test system: U251 CNS
CCRF-CEM leukemia = test system: CCRF-CEM leukemia
ACHN renal = test system: ACHN renal
SNB-78 CNS = test system: SNB-78 CNS
NCI-H522 lung = test system: NCI-H522 lung
SK-MEL-2 melanoma = test system: SK-MEL-2 melanoma
TK-10 renal = test system: TK-10 renal
HOP-62 NSCLC = test system: HOP-62 NSCLC
HT29 colon = test system: HT29 colon
MALME-3M melanoma = test system: MALME-3M melanoma
SW-620 colon = test system: SW-620 colon
RPMI-8226 leukemia = test system: RPMI-8226 leukemia
M14 melanoma = test system: M14 melanoma
KM12 colon = test system: KM12 colon
RXF-631 renal = test system: RXF-631 renal
HCC-2998 colon = test system: HCC-2998 colon
XF 498 CNS = test system: XF 498 CNS
SK-OV-3 ovarian = test system: SK-OV-3 ovarian
HL-60(TB) leukemia = test system: HL-60(TB) leukemia
A549 NSCLC = test system: A549 NSCLC
DLD-1 colon = test system: DLD-1 colon
HOP-92 NSCLC = test system: HOP-92 NSCLC
DMS 114 small cell lung = test system: DMS 114 small cell lung
UACC-257 melanoma = test system: UACC-257 melanoma
UACC-62 melanoma = test system: UACC-62 melanoma
HCT-116 colon = test system: HCT-116 colon
EKVX NSCLC = test system: EKVX NSCLC
SK-MEL-5 melanoma = test system: SK-MEL-5 melanoma
LOX IMVI melanoma = test system: LOX IMVI melanoma
786-0 renal = test system: 786-0 renal
SK-MEL-28 melanoma = test system: SK-MEL-28 melanoma
NCI-H460 lung = test system: NCI-H460 lung
RXF 393 renal = test system: RXF 393 renal
M19-MEL melanoma = test system: M19-MEL melanoma
SF-268 CNS = test system: SF-268 CNS
SNB-75 CNS = test system: SNB-75 CNS
IGROV1 ovarian = test system: IGROV1 ovarian
NCI-H23 lung = test system: NCI-H23 lung
OVCAR-5 ovarian = test system: OVCAR-5 ovarian
K-562 leukemia = test system: K-562 leukemia
A498 renal = test system: A498 renal
DMS 273 small cell lung = test system: DMS 273 small cell lung
SF-539 CNS = test system: SF-539 CNS
KM20L2 colon = test system: KM20L2 colon
COLO 205 colon = test system: COLO 205 colon
MOLT-4 leukemia = test system: MOLT-4 leukemia
SF-295 CNS = test system: SF-295 CNS
NCI-H226 lung = test system: NCI-H226 lung
HOP-18 NSCLC = test system: HOP-18 NSCLC
HCT-15 colon = test system: HCT-15 colon
SR leukemia = test system: SR leukemia
OVCAR-4 ovarian = test system: OVCAR-4 ovarian
UO-31 renal = test system: UO-31 renal
CAKI-1 renal = test system: CAKI-1 renal
SNB-19 CNS = test system: SNB-19 CNS
SN12C renal = test system: SN12C renal

`C/C(CC(=O)Nc1ccc(Cl)cc1)=N\NC(N)=S` was tested. Which TGI (LXFL 529 NSCLC) did it give?
The TGI was > 100 µM.

What about the TGI (OVCAR-3 ovarian) of the same compound?
The TGI was > 100 µM.

And the TGI (OVCAR-8 ovarian)?
The TGI was > 100 µM.

What about the TGI (U251 CNS) of the same compound?
The TGI was > 100 µM.

What about the TGI (CCRF-CEM leukemia) of the same compound?
Its TGI is > 100 µM.

What about the TGI (ACHN renal) of the same compound?
The TGI was > 100 µM.

And the TGI (SNB-78 CNS)?
The TGI was > 100 µM.

And the TGI (NCI-H522 lung)?
The TGI was > 100 µM.

And the TGI (SK-MEL-2 melanoma)?
Its TGI is > 100 µM.

What about the TGI (TK-10 renal) of the same compound?
Its TGI is > 100 µM.

And the TGI (HOP-62 NSCLC)?
The TGI was > 100 µM.

What about the TGI (HT29 colon) of the same compound?
Its TGI is > 100 µM.

And the TGI (MALME-3M melanoma)?
Its TGI is > 100 µM.

And the TGI (SW-620 colon)?
The TGI was > 100 µM.

And the TGI (RPMI-8226 leukemia)?
The TGI was > 100 µM.

What about the TGI (M14 melanoma) of the same compound?
Its TGI is > 100 µM.

And the TGI (KM12 colon)?
Its TGI is > 100 µM.

What about the TGI (RXF-631 renal) of the same compound?
Its TGI is > 100 µM.

And the TGI (HCC-2998 colon)?
Its TGI is 75.7 µM.

And the TGI (XF 498 CNS)?
Its TGI is > 100 µM.

What about the TGI (SK-OV-3 ovarian) of the same compound?
The TGI was > 100 µM.

And the TGI (HL-60(TB) leukemia)?
Its TGI is > 100 µM.

What about the TGI (A549 NSCLC) of the same compound?
Its TGI is > 100 µM.

What about the TGI (DLD-1 colon) of the same compound?
The TGI was > 100 µM.

And the TGI (HOP-92 NSCLC)?
The TGI was > 100 µM.

What about the TGI (DMS 114 small cell lung) of the same compound?
The TGI was > 100 µM.

What about the TGI (UACC-257 melanoma) of the same compound?
The TGI was > 100 µM.

What about the TGI (UACC-62 melanoma) of the same compound?
The TGI was > 100 µM.

And the TGI (HCT-116 colon)?
Its TGI is > 100 µM.

What about the TGI (EKVX NSCLC) of the same compound?
Its TGI is > 100 µM.

And the TGI (SK-MEL-5 melanoma)?
The TGI was > 100 µM.

And the TGI (LOX IMVI melanoma)?
The TGI was > 100 µM.

And the TGI (786-0 renal)?
Its TGI is > 100 µM.

And the TGI (SK-MEL-28 melanoma)?
The TGI was > 100 µM.

And the TGI (NCI-H460 lung)?
The TGI was > 100 µM.

And the TGI (RXF 393 renal)?
The TGI was > 100 µM.

What about the TGI (M19-MEL melanoma) of the same compound?
The TGI was > 100 µM.

What about the TGI (SF-268 CNS) of the same compound?
The TGI was > 100 µM.

And the TGI (SNB-75 CNS)?
Its TGI is > 100 µM.

And the TGI (IGROV1 ovarian)?
The TGI was > 100 µM.

And the TGI (NCI-H23 lung)?
Its TGI is > 100 µM.

What about the TGI (OVCAR-5 ovarian) of the same compound?
The TGI was > 100 µM.

And the TGI (K-562 leukemia)?
The TGI was > 100 µM.

And the TGI (A498 renal)?
Its TGI is > 100 µM.

And the TGI (DMS 273 small cell lung)?
Its TGI is > 100 µM.

And the TGI (SF-539 CNS)?
The TGI was > 100 µM.

What about the TGI (KM20L2 colon) of the same compound?
The TGI was > 100 µM.

What about the TGI (COLO 205 colon) of the same compound?
The TGI was > 100 µM.

And the TGI (MOLT-4 leukemia)?
The TGI was > 100 µM.

What about the TGI (SF-295 CNS) of the same compound?
Its TGI is > 100 µM.

Which TGI (NCI-H226 lung) does the source give for `Cc1ccc(Nc2nc(C)c(C(/C=C/c3ccc(/C=C/C(=N/NC(=O)C[n+]4ccccc4)c4sc(Nc5ccc(C)cc5[N+](=O)[O-])nc4C)cc3)=N\NC(=O)C[n+]3ccccc3)s2)c([N+](=O)[O-])c1` here?
Its TGI is 84.5 µM.

What about the TGI (LXFL 529 NSCLC) of the same compound?
Its TGI is > 100 µM.

What about the TGI (OVCAR-3 ovarian) of the same compound?
Its TGI is > 100 µM.

What about the TGI (OVCAR-8 ovarian) of the same compound?
Its TGI is > 100 µM.

And the TGI (U251 CNS)?
The TGI was > 100 µM.

What about the TGI (CCRF-CEM leukemia) of the same compound?
Its TGI is > 100 µM.

And the TGI (HOP-18 NSCLC)?
Its TGI is 68 µM.

What about the TGI (ACHN renal) of the same compound?
Its TGI is > 100 µM.

What about the TGI (SNB-78 CNS) of the same compound?
Its TGI is > 100 µM.

What about the TGI (NCI-H522 lung) of the same compound?
Its TGI is > 100 µM.

What about the TGI (SK-MEL-2 melanoma) of the same compound?
Its TGI is > 100 µM.

What about the TGI (TK-10 renal) of the same compound?
The TGI was > 100 µM.

What about the TGI (HOP-62 NSCLC) of the same compound?
The TGI was > 100 µM.

What about the TGI (HT29 colon) of the same compound?
Its TGI is > 100 µM.

And the TGI (MALME-3M melanoma)?
The TGI was > 100 µM.

And the TGI (SW-620 colon)?
The TGI was > 100 µM.

And the TGI (M14 melanoma)?
Its TGI is > 100 µM.

What about the TGI (KM12 colon) of the same compound?
The TGI was > 100 µM.

And the TGI (RXF-631 renal)?
Its TGI is > 100 µM.

And the TGI (HCC-2998 colon)?
Its TGI is > 100 µM.

What about the TGI (HCT-15 colon) of the same compound?
The TGI was > 100 µM.

What about the TGI (SR leukemia) of the same compound?
Its TGI is > 100 µM.

What about the TGI (SK-OV-3 ovarian) of the same compound?
The TGI was > 100 µM.

And the TGI (HL-60(TB) leukemia)?
Its TGI is > 100 µM.

What about the TGI (A549 NSCLC) of the same compound?
The TGI was > 100 µM.

What about the TGI (OVCAR-4 ovarian) of the same compound?
Its TGI is > 100 µM.

And the TGI (DLD-1 colon)?
Its TGI is > 100 µM.

And the TGI (UO-31 renal)?
Its TGI is > 100 µM.

And the TGI (DMS 114 small cell lung)?
The TGI was > 100 µM.

And the TGI (CAKI-1 renal)?
Its TGI is > 100 µM.

And the TGI (UACC-257 melanoma)?
Its TGI is > 100 µM.

What about the TGI (UACC-62 melanoma) of the same compound?
Its TGI is 67 µM.

And the TGI (HCT-116 colon)?
The TGI was > 100 µM.

What about the TGI (EKVX NSCLC) of the same compound?
The TGI was > 100 µM.

What about the TGI (SNB-19 CNS) of the same compound?
Its TGI is > 100 µM.

And the TGI (LOX IMVI melanoma)?
Its TGI is > 100 µM.

What about the TGI (786-0 renal) of the same compound?
The TGI was > 100 µM.

What about the TGI (SK-MEL-28 melanoma) of the same compound?
The TGI was > 100 µM.

What about the TGI (NCI-H460 lung) of the same compound?
The TGI was > 100 µM.

And the TGI (SN12C renal)?
The TGI was > 100 µM.

What about the TGI (RXF 393 renal) of the same compound?
The TGI was > 100 µM.

And the TGI (M19-MEL melanoma)?
The TGI was > 100 µM.

What about the TGI (SF-268 CNS) of the same compound?
Its TGI is > 100 µM.

And the TGI (SNB-75 CNS)?
The TGI was > 100 µM.

What about the TGI (IGROV1 ovarian) of the same compound?
Its TGI is > 100 µM.

And the TGI (NCI-H23 lung)?
Its TGI is > 100 µM.

And the TGI (OVCAR-5 ovarian)?
Its TGI is > 100 µM.

What about the TGI (K-562 leukemia) of the same compound?
The TGI was > 100 µM.

And the TGI (DMS 273 small cell lung)?
The TGI was > 100 µM.

What about the TGI (SF-539 CNS) of the same compound?
The TGI was > 100 µM.

And the TGI (KM20L2 colon)?
Its TGI is > 100 µM.

And the TGI (COLO 205 colon)?
The TGI was > 100 µM.

What about the TGI (MOLT-4 leukemia) of the same compound?
The TGI was > 100 µM.

And the TGI (SF-295 CNS)?
Its TGI is > 100 µM.
